In ChEMBL document CHEMBL1201862, “PubChem BioAssay data set” (2004):
Each block holds one compound with its values, some of them ahead of it. Calls of active or inactive are those of the source.

How the values were obtained:
Assay type in all cases: functional
[1] = target: Induced myeloid leukemia cell differentiation protein Mcl-1 (Homo sapiens, UniProt Q07820)
[2] = target: Beta-galactosidase (Escherichia coli, UniProt Q8VNN2); test: beta-galactosidase enzyme inhibitors and activators, dose response, artefact control for CCR6 antagonist project, biochemical, E. coli enzyme, set 3 (AID 504712)
[3] = target: DNA dC->dU-editing enzyme APOBEC-3G (Homo sapiens, UniProt Q9HC16); test: Dose Response confirmation of small molecule APOBEC3G DNA Deaminase Inhibitors via a fluorescence-based single-stranded DNA deaminase assay. [Related pubchem assays (depositor defined):AID493012, AID493028]
[4] = tested on: Vero; test: Vero cell cytotoxicity, cytotoxicity control for flavivirus capping enzyme inhibitors (AID 588742); settings: Chlorocebus sabaeus
[5] = target: Beta-arrestin-1 (Homo sapiens, UniProt P49407); test: inhibitors of arrestin peptide binding to AP2, dose response, biochemical, cherry pick 1, beta2-adaptin appendage, flow cytometry (AID 588783)
[6] = target: Genome polyprotein (dengue virus type 2, UniProt P29990); test: Dengue-2 NS5 methyltransferase inhibitors, primary screen, biochemical, confirmation dose response (AID 588689)
[7] = HeLa cell cytotoxicity, dose response, cytotoxicity control for MgcRacGAP inhibitor project (AID 624300)
[8] = target: T1, Rac GTPase-activating protein 1 (Homo sapiens, UniProt Q9H0H5); test: MgcRacGAP GTPase-activating activity inhibitors, confirmation, biochemical, ADP Hunter fluorescence, primary and confirmatory (AID 624330)
T1 sequence (Q9H0H5 whole entry): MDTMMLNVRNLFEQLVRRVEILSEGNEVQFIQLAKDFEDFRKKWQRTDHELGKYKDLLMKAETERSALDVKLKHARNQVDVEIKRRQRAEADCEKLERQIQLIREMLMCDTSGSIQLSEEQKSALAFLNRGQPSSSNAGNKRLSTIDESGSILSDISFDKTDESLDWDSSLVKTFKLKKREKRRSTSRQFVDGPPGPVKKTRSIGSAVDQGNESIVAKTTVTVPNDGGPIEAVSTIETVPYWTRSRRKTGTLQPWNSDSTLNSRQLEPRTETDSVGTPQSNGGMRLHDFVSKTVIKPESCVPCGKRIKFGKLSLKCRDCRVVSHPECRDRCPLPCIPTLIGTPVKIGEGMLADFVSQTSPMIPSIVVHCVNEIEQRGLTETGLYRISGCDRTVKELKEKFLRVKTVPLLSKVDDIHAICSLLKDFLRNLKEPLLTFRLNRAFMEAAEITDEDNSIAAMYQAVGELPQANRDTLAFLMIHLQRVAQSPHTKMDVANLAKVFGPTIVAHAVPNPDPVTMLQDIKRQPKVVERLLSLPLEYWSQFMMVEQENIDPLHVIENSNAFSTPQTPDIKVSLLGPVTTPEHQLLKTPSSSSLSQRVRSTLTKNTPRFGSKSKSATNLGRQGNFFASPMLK

[9] = THP-1 cell cytotoxicity, dose response, cytotoxicity control for Vif-APOBEC3G degradation inhibitor project, THP-1 cells (AID 1117359); settings: Human immunodeficiency virus 1, THP-1
[10] = target: T2, Hexokinase-1 (Homo sapiens, UniProt P19367); test: HK1 enzyme inhibition by HKDC1 hits, SAR follow-up, selectivity assay for HKDC1 inhibitor project, biochemical, set 2, resazurin fluorescence coupled readout (AID 588356)
T2 sequence (P19367 whole entry): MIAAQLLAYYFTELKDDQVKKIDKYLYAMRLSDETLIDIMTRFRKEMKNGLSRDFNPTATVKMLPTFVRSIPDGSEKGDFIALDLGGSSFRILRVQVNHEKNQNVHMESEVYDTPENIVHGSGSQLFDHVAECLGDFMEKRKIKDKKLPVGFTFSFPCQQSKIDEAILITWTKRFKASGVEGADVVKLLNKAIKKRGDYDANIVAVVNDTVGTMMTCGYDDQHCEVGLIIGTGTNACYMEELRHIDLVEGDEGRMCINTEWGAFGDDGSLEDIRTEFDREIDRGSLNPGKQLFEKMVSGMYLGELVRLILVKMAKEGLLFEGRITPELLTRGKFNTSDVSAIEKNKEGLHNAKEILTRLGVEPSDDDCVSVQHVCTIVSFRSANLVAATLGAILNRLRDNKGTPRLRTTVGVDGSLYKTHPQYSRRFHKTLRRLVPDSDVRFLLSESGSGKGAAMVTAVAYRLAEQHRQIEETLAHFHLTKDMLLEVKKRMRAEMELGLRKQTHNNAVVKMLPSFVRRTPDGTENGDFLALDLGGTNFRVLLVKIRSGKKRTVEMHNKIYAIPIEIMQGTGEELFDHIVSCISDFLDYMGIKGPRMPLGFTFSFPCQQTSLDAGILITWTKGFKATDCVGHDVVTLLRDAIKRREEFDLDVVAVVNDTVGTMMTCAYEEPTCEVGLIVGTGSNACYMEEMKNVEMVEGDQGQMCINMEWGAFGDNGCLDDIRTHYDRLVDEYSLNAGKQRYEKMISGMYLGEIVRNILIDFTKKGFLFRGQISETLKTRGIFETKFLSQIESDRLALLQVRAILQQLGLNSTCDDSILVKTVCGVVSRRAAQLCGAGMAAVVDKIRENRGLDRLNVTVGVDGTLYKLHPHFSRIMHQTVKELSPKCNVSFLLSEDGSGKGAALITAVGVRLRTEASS

[11] = target: T3, Hexokinase HKDC1 (Homo sapiens, UniProt Q2TB90); test: HKDC1 hexokinase inhibitors, SAR follow-up, biochemical, set 2 (AID 588355)
T3 sequence (Q2TB90 whole entry): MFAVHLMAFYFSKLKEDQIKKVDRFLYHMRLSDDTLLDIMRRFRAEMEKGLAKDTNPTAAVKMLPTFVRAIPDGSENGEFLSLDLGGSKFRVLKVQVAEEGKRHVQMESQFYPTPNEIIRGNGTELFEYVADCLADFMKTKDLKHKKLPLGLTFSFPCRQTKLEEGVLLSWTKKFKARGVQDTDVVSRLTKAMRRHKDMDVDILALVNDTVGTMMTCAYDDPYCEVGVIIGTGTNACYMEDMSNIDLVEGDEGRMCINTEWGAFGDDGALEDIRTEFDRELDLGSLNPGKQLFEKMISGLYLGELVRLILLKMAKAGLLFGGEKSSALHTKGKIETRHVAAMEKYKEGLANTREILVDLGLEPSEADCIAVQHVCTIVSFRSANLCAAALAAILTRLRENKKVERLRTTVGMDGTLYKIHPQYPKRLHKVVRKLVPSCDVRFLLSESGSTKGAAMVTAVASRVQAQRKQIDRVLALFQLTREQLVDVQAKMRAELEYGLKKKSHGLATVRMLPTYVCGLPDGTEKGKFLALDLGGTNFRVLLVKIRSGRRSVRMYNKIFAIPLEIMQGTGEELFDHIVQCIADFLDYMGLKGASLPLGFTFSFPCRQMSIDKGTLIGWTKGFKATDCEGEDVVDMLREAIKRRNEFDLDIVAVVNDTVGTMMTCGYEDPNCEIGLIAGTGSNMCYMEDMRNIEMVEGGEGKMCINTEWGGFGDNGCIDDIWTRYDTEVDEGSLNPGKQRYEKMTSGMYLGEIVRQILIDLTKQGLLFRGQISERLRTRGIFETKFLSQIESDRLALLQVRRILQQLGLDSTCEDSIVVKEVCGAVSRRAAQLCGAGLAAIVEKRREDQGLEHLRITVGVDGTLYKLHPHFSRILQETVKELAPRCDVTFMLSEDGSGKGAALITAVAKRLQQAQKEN

[12] = target: T4, Caspase-3 (Homo sapiens, UniProt P42574); test: caspase-3 inhibitors as off-family protease, SAR follow-up, selectivity assay for SENP protease inhibitor project, biochemical, luminescence, set 2 (AID 588599)
T4 sequence (P42574 whole entry): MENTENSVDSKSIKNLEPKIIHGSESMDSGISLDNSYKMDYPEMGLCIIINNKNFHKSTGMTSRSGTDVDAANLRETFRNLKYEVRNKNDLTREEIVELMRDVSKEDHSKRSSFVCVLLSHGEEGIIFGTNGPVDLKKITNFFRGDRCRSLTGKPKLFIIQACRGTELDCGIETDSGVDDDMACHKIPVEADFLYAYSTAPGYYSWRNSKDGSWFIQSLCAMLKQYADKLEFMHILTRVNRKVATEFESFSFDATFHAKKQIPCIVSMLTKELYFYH

[13] = target: T5, Sentrin-specific protease 8 (Homo sapiens, UniProt Q96LD8); test: SENP8 protease inhibitors, SAR follow-up, biochemical, luminescence, set 2 (AID 588601)
T5 sequence (Q96LD8 whole entry): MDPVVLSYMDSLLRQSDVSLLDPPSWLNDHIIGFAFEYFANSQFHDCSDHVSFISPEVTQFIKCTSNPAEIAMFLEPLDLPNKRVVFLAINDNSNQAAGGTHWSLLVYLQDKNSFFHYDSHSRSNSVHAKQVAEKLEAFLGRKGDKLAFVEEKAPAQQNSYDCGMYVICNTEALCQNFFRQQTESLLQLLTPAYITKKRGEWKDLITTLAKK

[14] = target: T6, Sentrin-specific protease 7 (Homo sapiens, UniProt Q9BQF6); test: SENP7 protease inhibitors, SAR follow-up, biochemical, luminescence, set 2 (AID 588600)
T6 sequence (Q9BQF6 whole entry): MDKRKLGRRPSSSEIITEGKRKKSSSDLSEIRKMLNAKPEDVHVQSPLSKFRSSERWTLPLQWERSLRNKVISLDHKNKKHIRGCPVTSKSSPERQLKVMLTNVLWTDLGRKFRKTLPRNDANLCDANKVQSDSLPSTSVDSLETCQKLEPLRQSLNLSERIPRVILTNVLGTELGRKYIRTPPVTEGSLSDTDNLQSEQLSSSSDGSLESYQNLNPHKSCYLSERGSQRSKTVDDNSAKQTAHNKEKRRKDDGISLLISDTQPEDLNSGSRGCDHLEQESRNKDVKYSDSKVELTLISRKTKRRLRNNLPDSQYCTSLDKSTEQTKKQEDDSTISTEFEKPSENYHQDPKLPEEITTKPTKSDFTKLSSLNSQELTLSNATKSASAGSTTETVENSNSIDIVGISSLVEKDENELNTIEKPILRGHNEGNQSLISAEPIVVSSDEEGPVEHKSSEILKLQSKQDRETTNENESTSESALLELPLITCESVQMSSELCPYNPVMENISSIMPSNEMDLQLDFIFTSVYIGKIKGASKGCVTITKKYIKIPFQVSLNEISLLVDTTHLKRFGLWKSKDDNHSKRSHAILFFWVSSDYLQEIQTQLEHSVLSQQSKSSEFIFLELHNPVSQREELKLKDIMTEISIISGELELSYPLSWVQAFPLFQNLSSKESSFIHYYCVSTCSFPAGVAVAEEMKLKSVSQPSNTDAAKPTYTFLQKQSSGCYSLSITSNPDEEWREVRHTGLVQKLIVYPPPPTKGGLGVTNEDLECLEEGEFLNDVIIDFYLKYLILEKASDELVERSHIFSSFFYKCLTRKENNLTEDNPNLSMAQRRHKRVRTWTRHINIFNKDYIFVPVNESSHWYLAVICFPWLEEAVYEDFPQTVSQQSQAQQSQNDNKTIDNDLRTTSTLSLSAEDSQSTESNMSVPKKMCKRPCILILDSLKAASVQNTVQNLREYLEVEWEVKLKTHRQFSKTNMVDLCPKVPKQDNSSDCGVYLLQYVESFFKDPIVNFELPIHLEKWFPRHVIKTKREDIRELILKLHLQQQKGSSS

[15] = target: T7, Sentrin-specific protease 6 (Homo sapiens, UniProt Q9GZR1); test: SENP6 protease inhibitors, SAR follow-up, biochemical, luminescence, set 2 (AID 588598)
T7 sequence (Q9GZR1 whole entry): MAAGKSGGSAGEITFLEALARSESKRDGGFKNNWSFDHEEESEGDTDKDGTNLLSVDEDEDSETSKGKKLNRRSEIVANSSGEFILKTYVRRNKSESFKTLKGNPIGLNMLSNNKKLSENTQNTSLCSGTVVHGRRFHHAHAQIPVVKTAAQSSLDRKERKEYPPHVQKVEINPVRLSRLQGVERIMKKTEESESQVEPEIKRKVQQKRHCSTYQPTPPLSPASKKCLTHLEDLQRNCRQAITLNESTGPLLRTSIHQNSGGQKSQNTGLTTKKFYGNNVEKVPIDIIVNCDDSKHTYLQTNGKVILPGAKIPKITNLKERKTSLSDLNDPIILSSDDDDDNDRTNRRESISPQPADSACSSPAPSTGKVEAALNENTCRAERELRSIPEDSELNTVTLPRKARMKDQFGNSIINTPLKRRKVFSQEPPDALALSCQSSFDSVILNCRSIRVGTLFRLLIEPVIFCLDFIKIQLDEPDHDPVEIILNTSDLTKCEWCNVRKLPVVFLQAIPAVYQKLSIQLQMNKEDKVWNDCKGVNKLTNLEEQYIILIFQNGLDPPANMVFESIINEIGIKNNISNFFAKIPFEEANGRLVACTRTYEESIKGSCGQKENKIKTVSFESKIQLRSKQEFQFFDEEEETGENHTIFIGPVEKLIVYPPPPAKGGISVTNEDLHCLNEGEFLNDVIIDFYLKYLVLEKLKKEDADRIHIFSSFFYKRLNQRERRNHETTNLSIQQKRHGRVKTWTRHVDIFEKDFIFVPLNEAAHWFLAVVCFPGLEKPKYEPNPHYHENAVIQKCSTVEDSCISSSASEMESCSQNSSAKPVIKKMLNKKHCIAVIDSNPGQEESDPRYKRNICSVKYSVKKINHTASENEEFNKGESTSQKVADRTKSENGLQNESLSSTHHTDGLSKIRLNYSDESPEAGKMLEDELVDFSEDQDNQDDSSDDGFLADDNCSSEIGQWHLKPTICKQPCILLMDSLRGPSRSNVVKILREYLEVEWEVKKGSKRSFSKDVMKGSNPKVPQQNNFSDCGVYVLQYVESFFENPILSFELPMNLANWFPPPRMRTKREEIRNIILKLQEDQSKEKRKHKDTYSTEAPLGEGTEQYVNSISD

Chain of Genome polyprotein (P29990 2492-3391 limits assumed): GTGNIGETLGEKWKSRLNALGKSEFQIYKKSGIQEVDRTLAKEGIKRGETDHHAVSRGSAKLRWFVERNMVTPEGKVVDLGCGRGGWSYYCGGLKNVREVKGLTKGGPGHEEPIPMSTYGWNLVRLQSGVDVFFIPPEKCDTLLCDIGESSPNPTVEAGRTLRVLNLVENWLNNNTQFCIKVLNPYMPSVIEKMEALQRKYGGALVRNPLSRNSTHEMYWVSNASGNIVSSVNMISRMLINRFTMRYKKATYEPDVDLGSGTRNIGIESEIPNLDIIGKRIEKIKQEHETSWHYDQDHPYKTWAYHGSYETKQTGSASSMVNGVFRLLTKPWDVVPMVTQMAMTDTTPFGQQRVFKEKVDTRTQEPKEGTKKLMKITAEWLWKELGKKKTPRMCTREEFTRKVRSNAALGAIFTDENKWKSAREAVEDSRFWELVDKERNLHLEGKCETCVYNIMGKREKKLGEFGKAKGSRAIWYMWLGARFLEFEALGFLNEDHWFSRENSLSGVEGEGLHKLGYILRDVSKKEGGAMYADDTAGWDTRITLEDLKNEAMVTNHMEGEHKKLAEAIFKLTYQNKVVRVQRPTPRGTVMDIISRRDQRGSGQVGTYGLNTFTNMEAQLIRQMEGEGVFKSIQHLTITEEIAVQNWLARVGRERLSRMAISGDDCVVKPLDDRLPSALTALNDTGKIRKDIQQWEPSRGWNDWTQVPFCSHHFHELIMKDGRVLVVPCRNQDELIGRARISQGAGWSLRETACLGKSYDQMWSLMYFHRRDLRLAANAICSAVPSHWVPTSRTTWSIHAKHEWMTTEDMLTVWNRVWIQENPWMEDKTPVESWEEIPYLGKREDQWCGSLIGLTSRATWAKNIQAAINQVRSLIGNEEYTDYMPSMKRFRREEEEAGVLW
Chain of DNA dC->dU-editing enzyme APOBEC-3G (Q9HC16 whole entry): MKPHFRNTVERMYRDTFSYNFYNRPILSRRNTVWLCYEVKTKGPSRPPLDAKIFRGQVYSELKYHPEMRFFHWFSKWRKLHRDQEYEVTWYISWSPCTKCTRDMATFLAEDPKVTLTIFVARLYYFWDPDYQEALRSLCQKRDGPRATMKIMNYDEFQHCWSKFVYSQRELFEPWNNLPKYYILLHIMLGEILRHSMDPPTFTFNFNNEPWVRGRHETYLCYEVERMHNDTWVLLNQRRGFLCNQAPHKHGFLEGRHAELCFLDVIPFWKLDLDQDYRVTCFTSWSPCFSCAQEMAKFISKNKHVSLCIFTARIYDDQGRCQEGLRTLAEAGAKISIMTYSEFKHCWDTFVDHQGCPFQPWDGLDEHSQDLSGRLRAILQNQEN
Chain of Induced myeloid leukemia cell differentiation protein Mcl-1 (Q07820 whole entry): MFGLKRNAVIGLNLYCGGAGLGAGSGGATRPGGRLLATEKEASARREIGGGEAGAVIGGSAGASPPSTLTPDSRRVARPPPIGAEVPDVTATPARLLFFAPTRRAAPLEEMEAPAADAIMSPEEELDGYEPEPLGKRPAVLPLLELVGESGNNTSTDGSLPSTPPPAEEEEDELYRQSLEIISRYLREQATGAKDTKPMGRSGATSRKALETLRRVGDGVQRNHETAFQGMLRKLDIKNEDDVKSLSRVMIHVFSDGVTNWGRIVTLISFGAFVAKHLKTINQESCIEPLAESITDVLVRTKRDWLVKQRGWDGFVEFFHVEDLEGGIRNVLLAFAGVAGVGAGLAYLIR
Chain of Beta-arrestin-1 (P49407 whole entry): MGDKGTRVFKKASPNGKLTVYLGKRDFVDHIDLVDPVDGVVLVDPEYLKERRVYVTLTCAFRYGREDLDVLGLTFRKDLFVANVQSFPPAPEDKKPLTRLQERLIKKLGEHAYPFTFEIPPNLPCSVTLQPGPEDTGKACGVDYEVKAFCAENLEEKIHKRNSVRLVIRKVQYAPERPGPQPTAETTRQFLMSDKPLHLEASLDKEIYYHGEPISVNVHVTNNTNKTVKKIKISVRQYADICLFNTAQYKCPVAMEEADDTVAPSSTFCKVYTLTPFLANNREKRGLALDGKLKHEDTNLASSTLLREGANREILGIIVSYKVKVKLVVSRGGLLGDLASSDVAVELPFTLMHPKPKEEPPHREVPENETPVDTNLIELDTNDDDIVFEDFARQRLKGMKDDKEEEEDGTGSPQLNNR
Chain of Beta-galactosidase (Q8VNN2 whole entry): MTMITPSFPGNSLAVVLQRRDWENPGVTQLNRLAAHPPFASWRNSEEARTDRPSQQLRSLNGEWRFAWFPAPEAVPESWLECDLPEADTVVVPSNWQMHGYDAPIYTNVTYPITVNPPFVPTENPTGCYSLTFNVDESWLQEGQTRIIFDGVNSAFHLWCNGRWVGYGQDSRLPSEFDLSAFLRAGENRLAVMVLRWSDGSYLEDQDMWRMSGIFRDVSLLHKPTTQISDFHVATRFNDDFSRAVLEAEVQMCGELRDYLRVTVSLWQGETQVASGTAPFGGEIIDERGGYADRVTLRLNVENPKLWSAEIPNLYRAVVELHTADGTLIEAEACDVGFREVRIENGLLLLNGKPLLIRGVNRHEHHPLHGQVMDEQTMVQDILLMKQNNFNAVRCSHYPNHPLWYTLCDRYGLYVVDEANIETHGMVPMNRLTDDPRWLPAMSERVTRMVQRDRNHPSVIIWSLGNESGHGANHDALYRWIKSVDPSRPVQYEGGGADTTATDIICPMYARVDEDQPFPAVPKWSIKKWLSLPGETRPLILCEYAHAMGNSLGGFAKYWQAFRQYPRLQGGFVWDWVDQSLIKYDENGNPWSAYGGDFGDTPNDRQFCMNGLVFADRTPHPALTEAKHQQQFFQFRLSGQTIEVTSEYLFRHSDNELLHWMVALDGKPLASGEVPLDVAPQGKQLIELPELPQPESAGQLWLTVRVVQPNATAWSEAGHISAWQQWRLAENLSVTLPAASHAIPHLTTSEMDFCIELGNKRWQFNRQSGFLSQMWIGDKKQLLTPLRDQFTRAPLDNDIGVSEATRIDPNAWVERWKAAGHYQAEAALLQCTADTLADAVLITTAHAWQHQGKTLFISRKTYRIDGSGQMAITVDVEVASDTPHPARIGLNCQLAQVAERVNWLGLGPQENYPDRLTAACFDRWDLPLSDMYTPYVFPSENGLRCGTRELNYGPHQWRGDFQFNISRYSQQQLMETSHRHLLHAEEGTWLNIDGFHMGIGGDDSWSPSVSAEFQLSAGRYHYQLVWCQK

Structure (SMILES): CCC(=O)NC1=C(Cl)C(=O)C(NC(=O)CC)=C(Cl)C1=O
IC50 [1]: 4.29 µM (active)
IC50 [2]: > 66.6 µM (inactive)
IC50 [3]: 2.67 µM (active)
CC50 [4]: 24 µM (active)
IC50 [5]: 2.79 µM (active)
IC50 [6]: 5.19 µM (active)
CC50 [7]: 48 µM (active)
IC50 [8]: 23.3 µM (active)
CC50 [9]: 33.9 µM (active)

IC50 [10]: > 80 µM (inactive)
IC50 [11]: > 80 µM (inactive)
Structure (SMILES): CCCCN1C(=O)C(NC(C)=O)c2cc(Cl)ccc21 (stereo not given)

IC50 [12]: > 99 µM (inactive)
IC50 [14]: > 99 µM (inactive)
IC50 [15]: > 99 µM (inactive)
Structure (SMILES): CCCS(=O)(=O)c1c(S(=O)(=O)CCC)c2c(C)cccn2c1C(=O)N/N=C\c1c[nH]c2ccccc12
IC50 [13]: > 99 µM (inactive)
